Starred links: 1 amine or outer side, 2 acyl side, 3 side chain; linkers in the order of their positions; H or OH if unused. Non-standard residues stand in square brackets, D forms with d. Residues, ends and D or L forms follow the SMILES beside them. Groups on a side chain read outwards from the residue. *: point of attachment. X1 = CC(C)(CCNC(=N)N)[C@H](N[*:1])C(=O)[*:2]; C20 diacid = O=C(O)CCCCCCCCCCCCCCCCCCC(=O)*; C18 diacid = O=C(O)CCCCCCCCCCCCCCCCC(=O)*; γGlu = O=C(O)[C@H](CCC(=O)[*:2])N[*:1]; Palmitoyl = CCCCCCCCCCCCCCCC(=O)*; αMeF = C[C@](N)(Cc1ccccc1)C(=O)O; PEG2 = NCCOCCOCCC(=O)O; AEEA = NCCOCCOCC(=O)O; Aib = CC(C)(N)C(=O)O
How the values were obtained:
[1] = molecular target: human GLP-1 receptor (hGLP-1R) (Homo sapiens, UniProt P43220); assay: cAMP production (HTRF) in CHO cells expressing hGLP-1R; assay type: cell-based; parameters: expressed in transfected cells; conditions: for % Relative Potency Ratio: % GLP-1R activity relative to GLP-1 / % GlucR activity relative to glucagon; for EC50: cAMP, CHO cells, 0.1% BSA, geometric mean, read-out: hGLP-1R EC50
Chain of human GLP-1 receptor (hGLP-1R) (P43220 24-463): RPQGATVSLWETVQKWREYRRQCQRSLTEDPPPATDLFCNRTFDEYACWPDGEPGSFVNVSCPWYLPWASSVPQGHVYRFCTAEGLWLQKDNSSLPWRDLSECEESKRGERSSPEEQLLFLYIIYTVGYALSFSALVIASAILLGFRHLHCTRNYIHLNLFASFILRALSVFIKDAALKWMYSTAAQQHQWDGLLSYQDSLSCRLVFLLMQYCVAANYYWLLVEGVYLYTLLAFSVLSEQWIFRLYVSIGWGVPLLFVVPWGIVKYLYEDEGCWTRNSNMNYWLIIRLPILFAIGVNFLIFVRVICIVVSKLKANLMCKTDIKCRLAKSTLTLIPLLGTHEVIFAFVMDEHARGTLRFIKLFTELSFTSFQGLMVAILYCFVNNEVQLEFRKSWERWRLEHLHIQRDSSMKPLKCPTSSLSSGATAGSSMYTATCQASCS
Procedure, shortened: (§1)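 Cells were resuspended in assay buffer at batch-optimized density, typically 1×10^5 cells/mL for hGLP-1R and 2×10^5 cells/mL for hGCGR. After 30 min incubation at room temperature with compound, cAMP was measured by two-step HTRF. EC50 values came from 4-parameter logistic fits of % Delta F.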

[2] = molecular target: human glucagon receptor (hGCGR) (Homo sapiens, UniProt P47871); assay: cAMP production (HTRF) in CHO cells expressing hGCGR; assay type: cell-based; parameters: expressed in transfected cells; conditions: cAMP, CHO cells, 0.1% BSA, geometric mean; read-out: hGluc-R EC50
Chain of human glucagon receptor (hGCGR) (P47871 26-477): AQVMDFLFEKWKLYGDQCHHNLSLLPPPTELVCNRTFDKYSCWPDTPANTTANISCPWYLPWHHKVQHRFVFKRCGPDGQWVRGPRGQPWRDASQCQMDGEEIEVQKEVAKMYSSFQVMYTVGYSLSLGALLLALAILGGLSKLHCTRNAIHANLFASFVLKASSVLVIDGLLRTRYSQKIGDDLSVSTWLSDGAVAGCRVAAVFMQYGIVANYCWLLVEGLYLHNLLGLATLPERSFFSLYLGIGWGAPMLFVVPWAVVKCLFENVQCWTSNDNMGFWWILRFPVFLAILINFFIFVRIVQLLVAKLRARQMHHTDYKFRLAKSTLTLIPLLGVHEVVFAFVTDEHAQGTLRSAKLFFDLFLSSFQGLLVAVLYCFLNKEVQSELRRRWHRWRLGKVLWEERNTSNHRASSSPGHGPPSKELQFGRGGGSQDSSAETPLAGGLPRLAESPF
Procedure, shortened: as §1

Row | SMILES | % Relative Potency Ratio [1] | EC50 [1] | EC50 [2]
1 | CC[C@H](C)[C@H](NC(=O)[C@H](CO)NC(=O)[C@H](CCCCNC(=O)COCCOCCNC(=O)COCCOCCNC(=O)CC[C@H](NC(=O)CC[C@H](NC(=O)CCCCCCCCCCCCCCCCC(=O)O)C(=O)O)C(=O)O)NC(=O)[C@@H](NC(=O)[C@](C)(Cc1ccccc1)NC(=O)[C@H](CC(=O)O)NC(=O)[C@H](CCC(N)=O)NC(=O)[C@H](C)NC(=O)[C@H](C)NC(=O)[C@H](CCCNC(=N)N)NC(=O)[C@H](CO)NC(=O)[C@H](CC(=O)O)NC(=O)[C@H](CC(C)C)NC(=O)[C@](C)(Cc1ccccc1)NC(=O)[C@H](CCCCN)NC(=O)[C@H](CO)NC(=O)[C@@H](NC(=O)[C@H](CC(=O)O)NC(=O)[C@H](CO)NC(=O)[C@@H](NC(=O)[C@](C)(Cc1ccccc1)NC(=O)[C@H](CO)NC(=O)CNC(=O)[C@H](Cc1c[nH]cn1)NC(=O)C(C)(C)NC(=O)[C@@H](N)Cc1c[nH]cn1)[C@@H](C)O)C(C)C)C(C)C)C(=O)N[C@@H](C)C(=O)N[C@@H](CC(N)=O)C(=O)N[C@H](C(N)=O)[C@@H](C)O [Peptide 378] (H-H[Aib]HGS[αMeF]TSDVSK[αMeF]LDSRAAQD[αMeF]VK([AEEA-AEEA-γGlu-γGlu-C18 diacid])SIANT-NH2; N-terminus assumed) | 2.0 | 0.159 nM | 0.158 nM
2 | CC[C@H](C)[C@H](NC(=O)[C@H](CO)NC(=O)[C@H](CCCCNC(=O)COCCOCCNC(=O)COCCOCCNC(=O)CC[C@H](NC(=O)CCCCCCCCCCCCCCCCC(=O)O)C(=O)O)NC(=O)[C@@H](NC(=O)[C@](C)(Cc1ccccc1)NC(=O)[C@H](CC(=O)O)NC(=O)[C@H](CCC(N)=O)NC(=O)[C@H](C)NC(=O)[C@H](C)NC(=O)[C@H](CCCNC(=N)N)NC(=O)[C@H](CO)NC(=O)[C@H](CC(=O)O)NC(=O)[C@H](CC(C)C)NC(=O)[C@](C)(Cc1ccccc1)NC(=O)[C@H](CCCCN)NC(=O)[C@H](CO)NC(=O)[C@@H](NC(=O)[C@H](CC(=O)O)NC(=O)[C@H](CO)NC(=O)[C@@H](NC(=O)[C@](C)(Cc1ccccc1)NC(=O)[C@H](CO)NC(=O)CNC(=O)[C@H](Cc1c[nH]cn1)NC(=O)C(C)(C)NC(=O)[C@@H](N)Cc1c[nH]cn1)[C@@H](C)O)C(C)C)C(C)C)C(=O)N[C@@H](C)C(=O)N[C@@H](CC(N)=O)C(=O)N[C@H](C(N)=O)[C@@H](C)O [Peptide 379] (H-H[Aib]HGS[αMeF]TSDVSK[αMeF]LDSRAAQD[αMeF]VK([AEEA-AEEA-γGlu-C18 diacid])SIANT-NH2) | 2.4 | 0.0718 nM | 0.0857 nM
3 | CC[C@H](C)[C@H](NC(=O)[C@H](CO)NC(=O)[C@H](CCCCNC(=O)COCCOCCNC(=O)COCCOCCNC(=O)CC[C@H](NC(=O)CC[C@H](NC(=O)CCCCCCCCCCCCCCCCC(=O)O)C(=O)O)C(=O)O)NC(=O)[C@@H](NC(=O)[C@H](Cc1ccccc1)NC(=O)[C@H](CC(=O)O)NC(=O)[C@H](CCC(N)=O)NC(=O)[C@H](C)NC(=O)[C@H](C)NC(=O)[C@H](CCCNC(=N)N)NC(=O)[C@H](CO)NC(=O)[C@H](CC(=O)O)NC(=O)[C@H](CC(C)C)NC(=O)[C@](C)(Cc1ccccc1)NC(=O)[C@H](CCCCN)NC(=O)[C@H](CO)NC(=O)[C@@H](NC(=O)[C@H](CC(=O)O)NC(=O)[C@H](CO)NC(=O)[C@@H](NC(=O)[C@](C)(Cc1ccccc1)NC(=O)[C@H](CO)NC(=O)CNC(=O)[C@H](Cc1c[nH]cn1)NC(=O)C(C)(C)NC(=O)[C@@H](N)Cc1c[nH]cn1)[C@@H](C)O)C(C)C)C(C)C)C(=O)N[C@@H](C)C(=O)N[C@@H](CC(N)=O)C(=O)N[C@H](C(=O)NCC(=O)NCC(N)=O)[C@@H](C)O [Peptide 381] (H-H[Aib]HGS[αMeF]TSDVSK[αMeF]LDSRAAQDFVK([AEEA-AEEA-γGlu-γGlu-C18 diacid])SIANTGG-NH2; N-terminus assumed) | 14.9 | 0.174 nM | 1.31 nM
4 | CC[C@H](C)[C@H](NC(=O)[C@H](CO)NC(=O)[C@H](CCCCNC(=O)COCCOCCNC(=O)COCCOCCNC(=O)CC[C@H](NC(=O)CC[C@H](NC(=O)CCCCCCCCCCCCCCCCC(=O)O)C(=O)O)C(=O)O)NC(=O)[C@@H](NC(=O)[C@H](Cc1ccccc1)NC(=O)[C@H](CC(=O)O)NC(=O)[C@H](CCC(N)=O)NC(=O)[C@H](C)NC(=O)C(C)(C)NC(=O)[C@H](CCCNC(=N)N)NC(=O)[C@H](CO)NC(=O)[C@H](CC(=O)O)NC(=O)[C@H](CC(C)C)NC(=O)[C@](C)(Cc1ccccc1)NC(=O)[C@H](CCCCN)NC(=O)[C@H](CO)NC(=O)[C@@H](NC(=O)[C@H](CC(=O)O)NC(=O)[C@H](CO)NC(=O)[C@@H](NC(=O)[C@](C)(Cc1ccccc1)NC(=O)[C@H](CO)NC(=O)CNC(=O)[C@H](Cc1c[nH]cn1)NC(=O)C(C)(C)NC(=O)[C@@H](N)Cc1c[nH]cn1)[C@@H](C)O)C(C)C)C(C)C)C(=O)N[C@@H](C)C(=O)N[C@@H](CC(N)=O)C(=O)N[C@H](C(=O)NCC(=O)NCC(N)=O)[C@@H](C)O [Peptide 382, H(Aib)HGS(αMePhe)TSDVSK(αMePhe)LDSR(Aib)AQDFVK(O2OC-O2OC-γE-γE-C18diacid)24SIANTGG-amide] (H-H[Aib]HGS[αMeF]TSDVSK[αMeF]LDSR[Aib]AQDFVK([AEEA-AEEA-γGlu-γGlu-C18 diacid])SIANTGG-NH2; N-terminus assumed) | 11.6 | 0.056 nM | 0.329 nM
5 | CC[C@H](C)[C@H](NC(=O)C(C)(C)NC(=O)[C@H](CCCCNC(=O)COCCOCCNC(=O)COCCOCCNC(=O)CC[C@H](NC(=O)CCCCCCCCCCCCCCCCC(=O)O)C(=O)O)NC(=O)[C@@H](NC(=O)[C@](C)(Cc1ccccc1)NC(=O)[C@H](CC(=O)O)NC(=O)[C@H](CCC(N)=O)NC(=O)[C@H](C)NC(=O)[C@H](C)NC(=O)[C@H](CCC(N)=O)NC(=O)[C@H](CO)NC(=O)[C@H](CC(=O)O)NC(=O)[C@H](CC(C)C)NC(=O)[C@](C)(Cc1ccccc1)NC(=O)[C@H](CCCCN)NC(=O)[C@H](CO)NC(=O)[C@@H](NC(=O)[C@H](CC(=O)O)NC(=O)[C@H](CO)NC(=O)[C@@H](NC(=O)[C@](C)(Cc1ccccc1)NC(=O)[C@H](CO)NC(=O)CNC(=O)[C@H](Cc1c[nH]cn1)NC(=O)C(C)(C)NC(=O)[C@@H](N)Cc1c[nH]cn1)[C@@H](C)O)C(C)C)C(C)C)C(=O)N[C@@H](C)C(=O)N[C@@H](CC(N)=O)C(=O)N[C@H](C(N)=O)[C@@H](C)O [Peptide 383] (H-H[Aib]HGS[αMeF]TSDVSK[αMeF]LDSQAAQD[αMeF]VK([AEEA-AEEA-γGlu-C18 diacid])[Aib]IANT-NH2; N-terminus assumed) | 2.3 | 0.197 nM | 0.232 nM
6 | CC[C@H](C)[C@H](NC(=O)C(C)(C)NC(=O)[C@H](CCCCNC(=O)COCCOCCNC(=O)COCCOCCNC(=O)CC[C@H](NC(=O)CC[C@H](NC(=O)CCCCCCCCCCCCCCCCCCC(=O)O)C(=O)O)C(=O)O)NC(=O)[C@@H](NC(=O)[C@](C)(Cc1ccccc1)NC(=O)[C@H](CC(=O)O)NC(=O)[C@H](CCC(N)=O)NC(=O)[C@H](C)NC(=O)[C@H](C)NC(=O)[C@H](CCC(N)=O)NC(=O)[C@H](CO)NC(=O)[C@H](CC(=O)O)NC(=O)[C@H](CC(C)C)NC(=O)[C@](C)(Cc1ccccc1)NC(=O)[C@H](CCCCN)NC(=O)[C@H](CO)NC(=O)[C@@H](NC(=O)[C@H](CC(=O)O)NC(=O)[C@H](CO)NC(=O)[C@@H](NC(=O)[C@](C)(Cc1ccccc1)NC(=O)[C@H](CO)NC(=O)CNC(=O)[C@H](Cc1c[nH]cn1)NC(=O)C(C)(C)NC(=O)[C@@H](N)Cc1c[nH]cn1)[C@@H](C)O)C(C)C)C(C)C)C(=O)N[C@@H](C)C(=O)N[C@@H](CC(N)=O)C(=O)N[C@H](C(N)=O)[C@@H](C)O [Peptide 384] (H-H[Aib]HGS[αMeF]TSDVSK[αMeF]LDSQAAQD[αMeF]VK([AEEA-AEEA-γGlu-γGlu-C20 diacid])[Aib]IANT-NH2; N-terminus assumed) | 3.1 | 0.797 nM | 1.24 nM
7 | CCCCCCCCCCCCCCCC(=O)N[C@@H](CCC(=O)N[C@@H](CCC(=O)NCCOCCOCCC(=O)NCCOCCOCCC(=O)NCCCC[C@H](NC(=O)[C@H](CCCCN)NC(=O)[C@H](CO)NC(=O)[C@@H](NC(=O)[C@H](CC(=O)O)NC(=O)[C@H](CO)NC(=O)[C@@H](NC(=O)[C@](C)(Cc1ccccc1)NC(=O)[C@H](CO)NC(=O)CNC(=O)[C@H](CCC(N)=O)NC(=O)[C@H](CO)NC(=O)[C@@H](N)Cc1c[nH]cn1)[C@@H](C)O)C(C)C)C(=O)N[C@@H](CC(C)C)C(=O)N[C@@H](CC(=O)O)C(=O)N[C@@H](CO)C(=O)N[C@H](C(=O)N[C@@H](C)C(=O)N[C@@H](C)C(=O)N[C@@H](CCC(N)=O)C(=O)N[C@@H](CC(=O)O)C(=O)N[C@@](C)(Cc1ccccc1)C(=O)N[C@H](C(=O)N[C@@H](CCC(=O)O)C(=O)NC(C)(C)C(=O)N[C@@H](CC(C)C)C(=O)N[C@@H](C)C(=O)N[C@@H](CC(N)=O)C(=O)N[C@H](C(N)=O)[C@@H](C)O)C(C)C)C(C)(C)CCNC(=N)N)C(=O)O)C(=O)O [Peptide 400, HSQGS(αMePhe)TSDVSKK((PEG)2-(PEG)2-γE-γE-Palmitoyl)13LDS(β-dimethylArg)AAQD(αMePhe)VE(Aib)LANT-amide] (H-HSQGS[αMeF]TSDVSKK([PEG2-PEG2-γGlu-γGlu-Palmitoyl])LDS[X1]AAQD[αMeF]VE[Aib]LANT-NH2; N-terminus assumed) | 16.7 | 0.00127 nM | 0.0107 nM
